Data set [1] concerns TGFB1 mRNA. The data set is described as follows: RT-PCR of TGFB1 mRNA in LX-2 cells. Format: cell-based, human. To be noted: TGF-β1 (2 ng/mL) stimulation, 12 μM, 24 h. The procedure:
(§1) In the absence or presence of TGF-β1 (2 ng/mL) treatment, LX-2 cells were treated with key compounds 4n and 4p at concentrations of 6 μM and 12 μM, or 4i at a concentration of 12 μM, respectively.
Since the stimulation of TGF-β1 provokes the expression of a series of fibrosis genes, for example COL1A1 and TGFB1 [24, 25], the effects of key compounds on TGF-β1 expression were evaluated by RT-PCR and western blot assays. As shown in Figure 2B and Supplementary Table S1, the expression of TGFB1 mRNA was maintained at a low level, and the addition of a key compound seemed to have little effect on its expression.
(§2) LX-2 cells were laid on 6-well plate and cultured in DMEM supplemented with 10% fetal bovine serum (FBS) in a 5% CO2 atmosphere at 37 °C. And serum-free culture was required until the cells reached 90−95% confluence. After 24 h, cells were incubated with 40 and 80 μM concentrations of aloperine derivatives in the presence of 2 ng/mL of TGF-β1 for 24 h. Total RNA of the LX-2 cells was isolated using TRIzol reagent, purified using NucleoSpin RNA Clean-up. Reverse transcription was performed with Transcriptor first strand cDNA synthesis kit. Subsequently, the cDNA levels was determined by ABI 7500 Fast Real-Time PCR System using TaqMan probes of COL1A1, TGF-β1, α-SMA, and GAPDH (sequence not disclosed by ABI) and FastStart Universal Probe master mix (Roche, Indianapolis, IN, USA).

Data set [2] deals with COL1A1 mRNA. Description: RT-PCR of COL1A1 mRNA in LX-2 cells. Type of data set: cell-based, human. As to conditions: 24 h. How it is done:
as §1
as §2, with “After 24 h, cells were incubated with 40 and 80 μM concentrations of aloperine derivatives in the presence of 2 ng/mL of TGF-β1 for 24 h.” left out

Data set [3] is described as follows: in vivo. To be noted: both sexes, Kunming, mouse, po. How it is done:
To evaluate the safety profiles of the key compounds 4i, 4n and 4p, an acute toxicity test was performed in Kunming mice. Compound 4i was given orally in a single-dosing experiment at 100, 300 and 400 mg kg^−1, while 4n at 300, 400, 500 mg kg^−1, and 4p at 200, 400, 500 mg kg^−1. The mice were closely monitored for 7 days.
Male and Female Kunming mice with weight of 20.0 ±1.0 g were obtained from the Institute of Laboratory Animal Science (Beijing, China). Animals wer e cared according to the institutional guidelines of the Institute of Medicinal Biotechnology, CAMS&PUMC (IMB-20190610D3), and fed with regular rodent chow and housed in an air conditioned room. The mice were randomly divided into different groups with four male mice and four female mice each. Each compound was given orally in a single-dosing experiment, the dose of 4i was 100, 300 and 400 mg kg^−1, the dose of 4n was 300, 400, 500 mg kg^−1, the dose of 4p was 200, 400, 500 mg kg^−1 (ddH2O as control). The mice were closely monitored for 7 days. Body weight as well as survival was monitored.

Data set [4] in a line: LX-2 cell survival, sulforhodamine B (SRB) assay. Type of data set: cell-based. As to conditions: human, LX-2 cells. How it is done:
LX-2 cell survival was measured by sulforhodamine B (SRB) assay. The cells were seeded in 96-well plates at the density of 2 × 10^4/well and cultured in DMEM/GlutaMAX I medium with 10% fetal bovine serum (FBS) with 5% CO2, 37 °C. The cells were treated by the aloperine derivates for 24 h, washed by PBS for three times. Then the cells were fixed with 10% (wt/vol) trichloroacetic acid for 1 h and stained with SRB for 0.5 h. Subsequently, the protein-bound dye was dissolved in 10 mM Tris base solution after removing excess SRB dye washing repeatedly with 1% (vol/vol) acetic acid, the optical density (OD) was determined at 510 nm with a microplate reader.
For orientation: The SRB assay estimates cell density from bound dye.

In data set [5] the target is T1, luciferase (Photinus pyralis, UniProt P08659, K549A/L550V/N119G/N50D/S548I).
T1 construct: expressed in transfected cells; host or cells: human hepatic stellate LX-2 cells transfected with pGL4.17-COL1A1P; lysate used
T1 sequence (P08659 whole entry N50D/N119G/S548I/K549A/L550V): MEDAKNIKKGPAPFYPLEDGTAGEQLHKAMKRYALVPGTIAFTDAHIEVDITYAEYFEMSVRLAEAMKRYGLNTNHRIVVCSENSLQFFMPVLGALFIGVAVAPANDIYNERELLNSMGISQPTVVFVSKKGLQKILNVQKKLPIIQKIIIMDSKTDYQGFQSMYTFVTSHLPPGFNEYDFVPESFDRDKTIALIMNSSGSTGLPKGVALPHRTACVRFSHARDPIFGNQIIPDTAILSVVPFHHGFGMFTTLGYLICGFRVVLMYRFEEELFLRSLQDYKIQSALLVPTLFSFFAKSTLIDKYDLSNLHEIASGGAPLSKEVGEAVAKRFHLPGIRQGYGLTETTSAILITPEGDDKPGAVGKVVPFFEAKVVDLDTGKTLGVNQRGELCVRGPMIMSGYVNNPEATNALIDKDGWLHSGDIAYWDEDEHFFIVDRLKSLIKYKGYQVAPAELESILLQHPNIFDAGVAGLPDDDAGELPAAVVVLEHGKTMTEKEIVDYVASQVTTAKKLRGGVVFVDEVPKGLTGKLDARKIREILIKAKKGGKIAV
The data set is described as follows: Acute effect on luciferase activity (cell lysate, 2 h). Format: biochemical. As to conditions: 80 μM, 2-h treatment. The procedure: Then, their anti-COL1A1 potencies were verified by testing the half maximal inhibition concentration (IC50) values upon COL1A1 expression expression in LX-2 cells. […] Then, compounds 4i, 4n and 4p with the lower IC50 values were selected as the key compounds for further studies.
(§3) Cells were maintained on Dulbecco’s Modified Eagle’s medium (DMEM), laid on 96-well plate. DMEM medium was supplemented with 10% fetal bovine serum (FBS) at 37 °C humidified atmosphere with 5% CO2. Furthermore, serum-free culture was required until the cells were confluent at 90−95%. 24 h later the cells were treated with a tested compound (40 and 80 μM) for 24 h. The COL1A1 promotor activity was detected by the Bright-Glo luciferase assay system. Alternatively, to test the acute effects of compound on luciferase activity, 24 h later the cells were lysed and the lysate was treated with a tested compound (80 μM) for 2 h, then the luciferase was detected by the Bright-Glo luciferase assay system (Promega, Madison, WI, USA).

The nature of data set [6]: HepG2 cell survival, MTT assay. Type of data set: cell-based. To be noted: human, HepG2 cells. The procedure: HepG2 cell survival was measured by MTT assay. HepG2 cells, at density of 6x10^3 cells/well in 96-well culture plates, were incubated with the aloperine derivates at various concentrations until the cells at 50% confluence for 24 h. 20 µL of the MTT (5 mg/mL) solution was added to each plate and incubated with 5% CO2, 37 °C for 4 h. Subsequently, withdrawing the culture supernatant containing MTT, 150 µL DMSO was used for dissolving the formazan crystal. The absorbance was measured using a microplate reader at 570 nm.
(In general: Tetrazolium assays rely on reduction of a dye to a coloured formazan, in cell work by metabolically active cells.)

Data set [7] concerns COL1A1 promotor. Description: COL1A1 promotor luciferase reporter gene assay in TGF-β1-treated LX-2 cells. To be noted: for inhibition at 40 µM / inhibition at 80 µM / IC50: Homo sapiens; for inhibition at 40 µM / inhibition at 80 µM: LX-2, 24 h; for inhibition at 40 µM: 24 h with TGF-β1, read-out: Inhibition Percentage 40 μM (inhibition rate of COL1A1 promotor's activity); for inhibition at 80 µM: 24 h with TGF-β1, read-out: Inhibition Percentage 80 μM (inhibition rate of COL1A1 promotor's activity); for IC50: read-out: IC50 (concentration required to inhibit 50% of COL1A1 promotor's activity). Type of data set: cell-based, human. How it is done:
A single luciferase reporter gene detection model was applied to evaluate the inhibitory effects of all target compounds on the expression of COL1A1 promotor in human hepatic stellate LX-2 cells at the concentrations of 40 and 80 μM, taking EGCG as the positive control. The LX-2 cell lines were transfected with COL1A1 promotor luciferase plasmid pGL4.17-COL1A1P for 24 h, then simultaneously treated with TGF-β1 and a tested compound for 24 h.
as §3
(Reporter assays use an easily measured gene product as a stand-in for the process of interest.)

Take `O=C(CN1CCCC2=C[C@H]3C[C@H](CN4CCCC[C@H]34)[C@@H]21)Nc1cc(Cl)cc(OC(F)(F)F)c1` [4i, 12N-N′-(3-Chloro-5-trifluoromethoxyphenyl)carbamoylmethyl aloperine]: the “Inhibitory rate of TGFB1 mRNA expression” value in data set [1] was determined as 75.4%. Further, the “Inhibitory rate of COL1A1 transcription (mRNA)” value is 97.4% in data set [2] (TGF-β1 (2 ng/mL) stimulation, 12 μM) and 45% in data set [2] (absence of TGF-β1, 12 μM). For the same compound, the LD50 at 7 days in data set [3] is 100 mg/kg. The figures for the CC50 at 24 h in data set [4] and in data set [6] were 19.5 ± 1.8 µM and 22 ± 4.6 µM, respectively. Besides, the “Acute effect on luciferase activity” value in data set [5] was “minimal inhibition”. Moreover, the inhibition at 40 µM in data set [7] (40 μM) stood at 99.9%. Also, in data set [7], the inhibition at 80 µM is 99.9%. Besides, the IC50 in data set [7] stood at 8.4 ± 0.3 µM.

In turn, `O=C(CNS(=O)(=O)c1cc(C(F)(F)F)cc(C(F)(F)F)c1)N1CCCC2=C[C@H]3C[C@H](CN4CCCC[C@H]34)[C@@H]21` [10g, 12N-N′-(3,5-Ditrifluoromethyl)benzenesulfonylaminoacetyl aloperine] showed a melting point of 78 to 80 °C. The same compound returned a CC50 at 24 h in data set [4] of 68.6 ± 11.7 µM. The “Acute effect on luciferase activity” value in data set [5] is “minimal inhibition”. In data set [6], this compound showed a CC50 at 24 h of 113 ± 3.4 µM. Also, the inhibition at 40 µM in data set [7] (40 μM) came out at 48.4 ± 24.7%. In data set [7], the inhibition at 80 µM turned out to be 84 ± 0.5% and the IC50 was 27.6 ± 3 µM.

Compound `O=C(CN1CCCC2=C[C@H]3C[C@H](CN4CCCC[C@H]34)[C@@H]21)Nc1ccc(-c2cc3ccccc3[nH]2)cc1` [4h, 12N-N′-[4-(1H-Indol-2-yl)phenyl]carbamoylmethyl aloperine] showed a melting point of 219 to 221 °C. In data set [4], this compound had a 50% cytotoxic concentration (CC50) at 24 h of 7.5 ± 0.4 µM. Moreover, the “Acute effect on luciferase activity” value in data set [5] was “minimal inhibition”. This compound yielded a CC50 at 24 h in data set [6] of 18 ± 1.9 µM. In addition, in data set [7], the “IC50 (concentration required to inhibit 50% of COL1A1 promotor's activity)” value is “failed to give a dose-dependent inhibition” and the inhibition at 80 µM is 99.9%. Besides, in data set [7] (40 μM, 24 h with TGF-β1), the “Inhibition Percentage 40 μM (inhibition rate of COL1A1 promotor's activity)” value stood at 100.0 ± 0.0%. Further, the inhibition at 40 µM in data set [7] (40 μM) came out at 99.9%.

As usually defined, the LD50 is the dose expected to kill half of the subjects tested. The term CC50 denotes the concentration giving 50% cytotoxicity. Lower therefore signals greater toxicity to the cells. A word on the inhibition: it is the percentage by which the read-out fell short of the control. In general, melting point refers to the temperature, or range, at which the solid turns liquid.

The values are drawn from PMC7663597, “Structure–Activity Relationship of Aloperine Derivatives as New Anti–Liver Fibrogenic Agents” (Molecules, 2020).
